Strand notation (5' to 3'): a small letter for the sugar, then the base; units joined by * are phosphorothioate-linked, units joined directly phosphodiester-linked; [ ] holds rarer units or linkages, { } end groups; capitals alone tell only the bases. e = 2'-O-(2-methoxyethyl) (MOE); l = locked nucleic acid (LNA); k = constrained ethyl (cEt); [5mC] = 5-methylcytosine; d = 2'-deoxy (DNA)
System: miR-21
Experiment: miR-21 luciferase sensor assay in Hela cells
Assay type: cell-based
Details: for inhibition of miR-21 activity in the luciferase assay (in words) / luciferase value normalized to beta-galactosidase activity: Hela cells
Experimental: The compounds were assessed for miR-21 inhibitory activity in a luciferase assay. A microRNA luciferase sensor construct was engineered using pGL3-MCS2 (Promega). The construct was introduced into Hela cells to test the ability of anti-miR compounds to inhibit activity of miR-21. In this assay, miR-21 present in the Hela cells binds to its cognate site(s) in the luciferase sensor construct, and suppresses luciferase expression. When the appropriate anti-miR is introduced into the cells, it binds to miR-21 and relieves suppression of luciferase expression. Thus, in this assay anti-miRs that are effective inhibitors of miR-21 expression will cause an increase in luciferase expression.
Hela cells (ATCC), stably transfected with a luciferase construct engineered to contain a sequence complementary of miR-21, were seeded in T-170 flasks (BD Falcon) at 3.5*10^6 cells/flask. Hela cells were grown in Dulbecco's Modified Eagle Medium with High Glucose (Invitrogen).
Each flask of Hela cells was transfected with 0.5 ug of a phRL sensor plasmid (Promega) expressing Renilla to be used in normalization. Hela cells were transfected using 20 ul Lipofectamine 2000/flask (Invitrogen). After 4 hours of transfection, cells were washed with PBS and trypsinized Hela cells were plated at 40 k/well in 24 well plates (BD Falcon) and left overnight.
Hela cells were transfected with anti-miRs using Lipofectin (Invitrogen) at 2.5 ul Lipofectin/100 nM ASO/ml Opti-MEM I Reduced Serum Medium (Invitrogen) for 4 hours. After ASO transfection, Hela cells were refed with Dulbecco's Modified Eagle Medium with High Glucose (Invitrogen).
Hela cells are passively lysed and luciferase activity measured using the Dual-Luciferase Reporter Assay System (Promega).
The luciferase assay was performed to test the ability of anti-miRs with the nucleoside patterns described herein to inhibit the activity of miR-21. Results were compared to a ‘mock’ treatment, in which cells received no anti-miR treatment. The experiment was repeated and results of two experimental replicates are shown in the following Table B, as the luciferase value normalized to beta-galactosidase activity.
The luciferase assay was performed as described herein to test the ability of anti-miRs in Table F to inhibit the activity of miR-21. Results were compared to a ‘mock’ treatment, in which cells received no anti-miR treatment. The experiment was repeated and results of two experimental replicates are shown in the following Table D, as fold change in luciferase value relative to the mock treatment.

[1] = concentration of anti-miR compound 0.2 (unit not given)
[2] = concentration of anti-miR compound 0.6 (unit not given)
[3] = concentration of anti-miR compound 1.9 (unit not given)
[4] = concentration of anti-miR compound 5.6 (unit not given)
[5] = concentration of anti-miR compound 16.7 (unit not given)
[6] = concentration of anti-miR compound 50.0 (unit not given)
[7] = 500 nM oligonucleotide, two experimental replicates

Substance	inhibition of miR-21 activity in the luciferase assay (in words)	fold change in luciferase value relative to the mock treatment [1] [fold change]	fold change in luciferase value relative to the mock treatment [2] [fold change]	fold change in luciferase value relative to the mock treatment [3] [fold change]	fold change in luciferase value relative to the mock treatment [4] [fold change]	fold change in luciferase value relative to the mock treatment [5] [fold change]	fold change in luciferase value relative to the mock treatment [6] [fold change]	luciferase value normalized to beta-galactosidase activity (4 nM oligonucleotide)	luciferase value normalized to beta-galactosidase activity (20 nM oligonucleotide)	luciferase value normalized to beta-galactosidase activity (100 nM oligonucleotide)	luciferase value normalized to beta-galactosidase activity [7]	luciferase value normalized to beta-galactosidase activity (.16 nM oligonucleotide)	luciferase value normalized to beta-galactosidase activity (.8 nM oligonucleotide)
AE^MeCLAETE^MeCLAEGETE^MeCLTEGEAE^MeTLAEAEGE^MeCLTEAE (antisense eA*l[5mC]*eA*eT*l[5mC]*eA*eG*eT*l[5mC]*eT*eG*eA*lT*eA*eA*eG*l[5mC]*eT*eA) [Compound 25117, variation of 25070: each non-bicyclic nucleoside is 2′-MOE, each cytosine 5-methyl cytosine]	not effective inhibitors of miR-21	1.05	1.15	1.14	3.64	7.36	2.91	–	–	–	–	–	–
AE^MeCSAETE^MeCSAEGETE^MeCSTEGEAE^MeTSAEAEGE^MeCSTEAE (antisense eA*k[5mC]*eA*eT*k[5mC]*eA*eG*eT*k[5mC]*eT*eG*eA*kT*eA*eA*eG*k[5mC]*eT*eA; further chemistry not given here) [Compound 25116, variation of 25070: each non-bicyclic nucleoside is 2′-MOE, each cytosine 5-methyl cytosine]	not effective inhibitors of miR-21	1.06	0.98	1.06	2.47	5.64	1.98	–	–	–	–	–	–
AE^MeCSAT^MeCSAGT^MeCSTGATSAAG^MeCSTAE (antisense ACATCAGTCTGATAAGCTA; MOE ends, cEt, 5-methyl C, unmarked nucleosides not given here, further chemistry not given here) [Compound 25922, variation of 25070: each cytosine is a 5-methyl cytosine]	inhibition of miR-21 in a dose-dependent manner	1.02	1.10	1.34	8.81	11.60	11.46	–	–	–	–	–	–
AE^MeCSAT^MeCSAGT^MeCSTGATSAAG^MeCSTAS (antisense eA*k[5mC]*dA*dT*k[5mC]*dA*dG*dT*k[5mC]*dT*dG*dA*kT*dA*dA*dG*k[5mC]*dT*kA; further chemistry not given here) [Compound 25924, variation of 25070: 3′-terminal cEt nucleoside and each cytosine is a 5-methyl cytosine]	inhibition of miR-21 in a dose-dependent manner	1.10	1.25	1.37	7.80	13.01	8.99	–	–	–	–	–	–
AeTe^MeCeASGSTe^MeCeTeGSASTeAeASGS^MeCeTeAe [Compound 25077]	–	–	–	–	–	–	–	45	33	42	40	34	33
AeTe^MeCeAeGeTe^MeCeTeGSASTeASASGe^MeCeUSAS [Compound 25731]	–	–	–	–	–	–	–	32	39	38	59	34	45
Ae^MeCAST^MeCAGST^MeCTGASTASAGS^MeCTAe (ACATCAGTCTGATAAGCTA; listed as DNA, chemistry not fully specified) [Compound 25071]	–	–	–	–	–	–	–	50	63	53	42	48	36
Te^MeCASA^MeCAST^MeCAGST^MeCTGASTAAGS^MeCTAe (TCAACATCAGTCTGATAAGCTA; cEt, 5-methyl C and phosphorothioate modifications, code letters not given here, further chemistry not given here) [Compound 25067]	–	–	–	–	–	–	–	43	41	30	42	38	23

Source: patent US20120270928A1, “MICRORNA COMPOUNDS AND METHODS FOR MODULATING MIR-21 ACTIVITY” (REGULUS THERAPEUTICS INC., priority 2011, published 2012)
